We go through 1 compound from ChEMBL document CHEMBL1131097, “2-Deoxy derivative is a partial agonist of the intracellular messenger inositol 3,4,5,6-tetrakisphosphate in the epithelial cell line T84” (J Med Chem, 1998).

The structures appear in SMILES notation.

Assay [1] has as its system T84. As to the kind of experiment: Inhibition of calcium-mediated chloride secretion in the intestinal epithelial cell line T84 by measuring short circuit current at 200 uM concentration; Ineffective. In kind it is functional, cell-based. As to conditions: Homo sapiens.
In assay [2] the test system is T84. As to the kind of experiment: Inhibition of calcium-mediated chloride secretion in the intestinal epithelial cell line T84 by measuring short circuit current at 400 uM concentration; Maximum. Format: functional, cell-based. As to conditions: Homo sapiens.

For the compound `CCCCO[C@@H]1C[C@H](OP(=O)(OCOC(C)=O)OCOC(C)=O)[C@@H](OP(=O)(OCOC(C)=O)OCOC(C)=O)[C@H](OP(=O)(OCOC(C)=O)OCOC(C)=O)[C@H]1OP(=O)(OCOC(C)=O)OCOC(C)=O` (racemic), the inhibition entry in the assay with T84 [1] and with T84 [2] was “Ineffective” in each case.
